The results in this text go back to patent publication US11999727B2 (Tango Therapeutics, Inc., priority 2020, dated 2024).

Structures are written as SMILES.

The target of assay [1] is T1, PRMT5 (Homo sapiens, UniProt O14744).
T1 construct: purchased Viva (custom protein)
Nature of the assay: PRMT5 biochemical IC50 assay with SAM as cofactor. As to conditions: PRMT5, SAM as cofactor; read-out: SAM IC50.

Assay [2] concerns the target T1, PRMT5. Briefly: PRMT5 biochemical IC50 assay with no cofactor. The conditions noted are these: PRMT5, no cofactor; read-out: No Cofactor/rel IC50. From the text:
Table 1 indicates IC50 values (μM) against PRMT5 for exemplary compounds in the presence of SAM as cofactor, with no cofactor, and with MTA as cofactor, respectively (columns 4-6). […] Ki values can be calculated from the IC50 values as described in the Examples section. As detailed in the Examples section, for the assay performed in the presence of SAM, IC50=Ki×1.5 (Ki=IC50/1.5).

The target of assay [3] is T1, PRMT5. Nature of the assay: PRMT5 biochemical IC50 assay with MTA as cofactor. As to conditions: PRMT5, MTA as cofactor; read-out: MTA IC50.
The subject of assay [4] is HAP1 MTAP-intact cell line. Briefly: SDMA in-cell western assay, HAP1 MTAP-intact. Format: cell-based. As to conditions: Homo sapiens, HAP1, SDMA in-cell western, HAP1 MTAP-intact; read-out: MTAP HAP1 intact IC50. The gist of the method: (§1)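 IC50 values come from SDMA signal quantified by in-cell western in two HAP1 lines, one with native MTAP levels and one lacking MTAP.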

Assay [5] has as its system HAP1 MTAP-deleted cell line. Briefly: SDMA in-cell western assay, HAP1 MTAP-deleted. The conditions noted are these: for IC50: Homo sapiens, HAP1, SDMA in-cell western, HAP1 MTAP-deleted; for MTAP intact/deleted ratio: SDMA in-cell western. Format: cell-based. The gist of the method:
as §1

Assay [6] concerns HAP1 MTAP-deleted cell line. Briefly: Viability assay, MTAP-deleted cell line. The class given is cell-based. The conditions noted are these: Homo sapiens, read-out: HAP1 MTAP deleted viability. The source says: Table 1 additionally indicates IC50 values in a viability assay for the MTAP-deleted cell line (column 10), indicating the effect of treatment with compound on cell survival.

The mark [7] stands for this setting: read-out: HAP1 MTAP deleted IC50.
[8] abbreviates: IC50 ratio HAP1 MTAP-intact / HAP1 MTAP-deleted.
Setting [9] is: HAP1, viability assay, MTAP-deleted cell line.
[10] abbreviates: read-out: HAP 1 MTAP deleted IC50.
Setting [11] is: IC50 ratio HAP1 MTAP-intact vs HAP1 MTAP-deleted.
The mark [12] stands for this setting: HAP1, viability assay, HAP1 MTAP-deleted.

T1 sequence (O14744 whole entry): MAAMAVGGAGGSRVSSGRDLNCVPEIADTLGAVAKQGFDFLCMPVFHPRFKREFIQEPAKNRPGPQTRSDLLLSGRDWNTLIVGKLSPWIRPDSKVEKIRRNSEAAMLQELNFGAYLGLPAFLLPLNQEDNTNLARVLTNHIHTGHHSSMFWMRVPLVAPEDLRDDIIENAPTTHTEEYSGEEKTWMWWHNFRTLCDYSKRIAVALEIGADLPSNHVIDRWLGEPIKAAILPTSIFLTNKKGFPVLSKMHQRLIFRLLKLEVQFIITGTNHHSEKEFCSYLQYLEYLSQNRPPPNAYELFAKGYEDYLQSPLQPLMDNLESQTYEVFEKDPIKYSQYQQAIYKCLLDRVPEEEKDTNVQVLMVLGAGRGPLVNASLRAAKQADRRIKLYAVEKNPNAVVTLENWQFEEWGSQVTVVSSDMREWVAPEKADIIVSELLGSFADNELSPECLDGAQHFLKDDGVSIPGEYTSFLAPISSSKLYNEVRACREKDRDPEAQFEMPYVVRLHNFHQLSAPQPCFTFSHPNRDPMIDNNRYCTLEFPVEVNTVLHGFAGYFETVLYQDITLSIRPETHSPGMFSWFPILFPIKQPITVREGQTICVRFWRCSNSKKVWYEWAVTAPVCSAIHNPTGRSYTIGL
T1 sequence (Q9BQA1 whole entry partner): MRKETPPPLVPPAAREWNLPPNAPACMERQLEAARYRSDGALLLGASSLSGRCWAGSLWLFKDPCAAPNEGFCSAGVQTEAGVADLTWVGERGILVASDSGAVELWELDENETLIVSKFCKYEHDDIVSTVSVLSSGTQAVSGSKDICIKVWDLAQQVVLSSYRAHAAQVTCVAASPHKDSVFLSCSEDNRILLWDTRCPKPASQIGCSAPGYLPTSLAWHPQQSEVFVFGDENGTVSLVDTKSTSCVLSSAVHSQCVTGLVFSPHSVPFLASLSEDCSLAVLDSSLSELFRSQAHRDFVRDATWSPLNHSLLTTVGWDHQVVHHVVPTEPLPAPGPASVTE

On to `C[C@@H]1CC[C@@H](c2ccccc2)N(C(=O)C(=O)Nc2cncc(C(N)=O)c2)[C@H]1C` (racemic) [Compound 181, rac-5-[[2-[(2S,3R,6S)-2,3-dimethyl-6-phenyl-1-piperidyl]-2-oxo-acetyl]amino]pyridine-3-carboxamide], for which the IC50 is 50 to 500 nM at PRMT5 [1]; 50 to 500 nM on PRMT5 [2]; less than 50 nM on PRMT5 [3]; greater than 1000 nM in assay [4]; 100 to 1000 nM in assay [5] (setting [7]); 1000 to 10000 nM in assay [6] (setting [9]). Moreover, in assay [5] (setting [8]), the MTAP intact/deleted ratio entry was “A (an IC50 ratio greater than or equal to 10 fold)”.

For `Cc1cc(NC(=O)C(=O)N2C[C@@H](C)CC[C@@H]2c2ccc(-c3cncs3)cc2)cnc1N` (single isomer, unassigned) [Compound 887, N-(6-amino-5-methylpyridin-3-yl)-2-(5-methyl-2-(4-(thiazol-5-yl)phenyl)piperidin-1-yl)-2-oxoacetamide], the IC50 at PRMT5 [1] was 50 to 500 nM; on PRMT5 [2], 50 to 500 nM; at PRMT5 [3], less than 50 nM; in assay [4], less than 100 nM; in assay [5] (setting [10]), less than 100 nM; in assay [6] (setting [9]), less than 1000 nM. In addition, the MTAP intact/deleted ratio entry in assay [5] (setting [8]) is listed as “B (an IC50 ratio greater than or equal to 3 fold but lower than 10 fold)”.

Take `COc1ncc(NC(=O)C(=O)N2C[C@@H](C)CC[C@@H]2c2ccc3sc([C@H]4CCN(C)C[C@H]4C)nc3c2)cc1C(N)=O` (racemic) [Compound 1185, 2-methoxy-5-[[2-oxo-2-[rac-(2R,5S)-5-methyl-2-[2-[rac-(3S,4S)-1,3-dimethyl-4-piperidyl]-1,3-benzothiazol-5-yl]-1-piperidyl]acetyl]amino]pyridine-3-carboxamide]: the IC50 was less than 50 nM at PRMT5 [1]; less than 50 nM on PRMT5 [2]; less than 50 nM on PRMT5 [3]; less than 100 nM in assay [4]; less than 100 nM in assay [5] (setting [7]); less than 1000 nM in assay [6] (setting [9]). Also, in assay [5] (setting [11]), the MTAP intact/deleted ratio result was “A (an IC50 ratio greater than or equal to 10 fold)”.

With `COc1ncc(NC(=O)C(=O)N2C[C@@H](C)CC[C@@H]2c2cc3cn[nH]c3s2)cc1C(N)=O` (single isomer, unassigned) [Compound 968, 2-methoxy-5-(2-(5-methyl-2-(1H-thieno[2,3-c]pyrazol-5-yl)piperidin-1-yl)-2-oxoacetamido)nicotinamide], the IC50 is 50 to 500 nM on PRMT5 [1]; less than 50 nM on PRMT5 [2]; less than 50 nM on PRMT5 [3]; 100 to 1000 nM in assay [4]; less than 100 nM in assay [5] (setting [10]); less than 1000 nM in assay [6] (setting [9]). Besides, the MTAP intact/deleted ratio entry in assay [5] (setting [8]) was “A (an IC50 ratio greater than or equal to 10 fold)”.

For `Cc1cncc(NC(=O)C(=O)N2C[C@@H](C)CC[C@H]2c2cccc(F)c2)c1` (single isomer, unassigned) [Compound 1080], the IC50 at PRMT5 [1] is greater than 500 nM; at PRMT5 [2] it was greater than 500 nM; on PRMT5 [3], greater than 500 nM; in assay [4], greater than 1000 nM; in assay [5] (setting [7]), greater than 1000 nM; in assay [6] (setting [9]), greater than 10000 nM. Besides, the MTAP intact/deleted ratio result in assay [5] (setting [11]) is listed as “C (an IC50 ratio of less than 3 fold)”.

In the case of `C[C@@H]1CC[C@H](c2ccc(NCC(=O)N(C)C)cc2)N(C(=O)C(=O)Nc2cncc(C(N)=O)c2)C1` (racemic) [Compound 422, 5-[[2-[(2R,5R)-2-[4-[[2-(Dimethylamino)-2-oxo-ethyl]amino]phenyl]-5-methyl-1-piperidyl]-2-oxo-acetyl]amino]pyridine-3-carboxamide], the IC50 at PRMT5 [1] was 50 to 500 nM; on PRMT5 [2] it was greater than 500 nM; at PRMT5 [3], 50 to 500 nM; in assay [4], greater than 1000 nM; in assay [5] (setting [7]) it was 100 to 1000 nM; in assay [6] (setting [9]) it was greater than 10000 nM. In addition, the MTAP intact/deleted ratio result in assay [5] (setting [8]) is reported as “A (an IC50 ratio greater than or equal to 10 fold)”.

Turning to `CNc1ccc([C@H]2CC[C@H](C)CN2C(=O)C(=O)Nc2cnc(N)c(C)c2)cn1` (single isomer, unassigned) [Compound 876], the IC50 is greater than 500 nM at PRMT5 [1]; greater than 500 nM on PRMT5 [2]; greater than 500 nM at PRMT5 [3]; greater than 1000 nM in assay [4]; greater than 1000 nM in assay [5] (setting [7]); greater than 10000 nM in assay [6] (setting [12]). Further, the MTAP intact/deleted ratio result in assay [5] (setting [8]) is listed as “B (an IC50 ratio greater than or equal to 3 fold but lower than 10 fold)”.

In the case of `Cc1cc(NC(=O)C(=O)N2C[C@@H](C)CC[C@@H]2c2ccc(-c3nccs3)cc2)cnc1N` (single isomer, unassigned) [Compound 820], the IC50 at PRMT5 [1] was 50 to 500 nM; on PRMT5 [2], 50 to 500 nM; on PRMT5 [3] it was less than 50 nM; in assay [4], 100 to 1000 nM; in assay [5] (setting [7]), less than 100 nM; in assay [6] (setting [12]), less than 1000 nM. Besides, the MTAP intact/deleted ratio result in assay [5] (setting [8]) is listed as “B (an IC50 ratio greater than or equal to 3 fold but lower than 10 fold)”.

With `C[C@@H]1CC[C@@H](c2ccc(F)cc2)N(C(=O)C(=O)Nc2cnc(OC(F)F)c(C(N)=O)c2)C1` (racemic) [Compound 889, 2-(difluoromethoxy)-5-(2-(2-(4-fluorophenyl)-5-methylpiperidin-1-yl)-2-oxoacetamido)nicotinamide], the IC50 is greater than 500 nM at PRMT5 [1]; 50 to 500 nM on PRMT5 [2]; 50 to 500 nM on PRMT5 [3]; greater than 1000 nM in assay [4]; greater than 1000 nM in assay [5] (setting [10]); greater than 10000 nM in assay [6] (setting [9]). The MTAP intact/deleted ratio result in assay [5] (setting [8]) was “B (an IC50 ratio greater than or equal to 3 fold but lower than 10 fold)”.

Turning to `C[C@@H]1CC[C@@H](c2ccc(F)c(F)c2)N(C(=O)C(=O)Nc2cncc(C(N)=O)c2)C1` (single isomer, unassigned) [Compound 474], the IC50 at PRMT5 [1] was greater than 500 nM; at PRMT5 [2] it was greater than 500 nM; at PRMT5 [3] it was greater than 500 nM; in assay [4] it was greater than 1000 nM; in assay [5] (setting [7]), greater than 1000 nM; in assay [6] (setting [9]), greater than 10000 nM. Moreover, the MTAP intact/deleted ratio entry in assay [5] (setting [8]) is recorded as “C (an IC50 ratio of less than 3 fold)”.

Take `C[C@H]1CC[C@H](c2ccc(Cl)cc2)N(C(=O)C(=O)Nc2cncc(C(N)=O)c2)C1` (single isomer, unassigned) [Compound 569]: the IC50 on PRMT5 [1] is greater than 500 nM; on PRMT5 [2], greater than 500 nM; at PRMT5 [3] it was greater than 500 nM; in assay [4] it was greater than 1000 nM; in assay [5] (setting [10]) it was greater than 1000 nM; in assay [6] (HAP1, viability IC50, MTAP-deleted cell line) it was greater than 10000 nM. In addition, the MTAP intact/deleted ratio result in assay [5] (setting [8]) is “C (an IC50 ratio of less than 3 fold)”.

On to `Cc1ccc([C@H]2CC(F)(F)[C@H](C)CN2C(=O)C(=O)Nc2cncc(C(N)=O)c2)cn1` (single isomer, unassigned) [Compound 974], for which the IC50 was 50 to 500 nM on PRMT5 [1]; 50 to 500 nM on PRMT5 [2]; less than 50 nM at PRMT5 [3]; greater than 1000 nM in assay [4]; less than 100 nM in assay [5] (setting [10]); 1000 to 10000 nM in assay [6] (setting [9]). Besides, the MTAP intact/deleted ratio entry in assay [5] (setting [8]) is listed as “A (an IC50 ratio greater than or equal to 10 fold)”.

As for `CCc1cc(NC(=O)C(=O)N2C[C@@H](C)CC[C@@H]2c2ccc3sc(-c4cccnc4)nc3c2)cnc1N` [Compound 1200, N-(6-amino-5-ethylpyridin-3-yl)-2-((2R,5S)-5-methyl-2-(2-(pyridin-3-yl)benzo[d]thiazol-5-yl)piperidin-1-yl)-2-oxoacetamide], the IC50 is 50 to 500 nM on PRMT5 [1]; less than 50 nM on PRMT5 [2]; less than 50 nM on PRMT5 [3]; 100 to 1000 nM in assay [4]; less than 100 nM in assay [5] (setting [7]); less than 1000 nM in assay [6] (setting [9]). Moreover, the MTAP intact/deleted ratio result in assay [5] (setting [11]) is reported as “A (an IC50 ratio greater than or equal to 10 fold)”.
